Tested on: Erysiphe [syn. Blumeria] graminis forma specialis tritici
Assay: Protective activity against mildew of wheat (potted wheat seedlings, greenhouse)
Assay type: in vivo
Details: wheat cv. Kanzler, 7 days
Experimental: The active compounds, separately or together, were formulated as a 10% emulsion in a mixture of 63% by weight of cyclohexanone and 27% by weight of emulsifier, and diluted with water to the desired concentration.
Evaluation was carried out by determining the infected leaf areas in percent. These percentages were converted into efficacies. The efficacy (W) was calculated as follows using Abbot's formula: […] • α corresponds to the fungal infection of the treated plants in % and • β corresponds to the fungal infection of the untreated (control) plants in %
An efficacy of 0 means that the infection level of the treated plants corresponds to that of the untreated control plants; an efficacy of 100 means that the treated plants were not infected.
The expected efficacies of the mixtures of the active compounds were determined using Colby's formula [R. S. Colby, Weeds 15, 20–22 (1967)] and compared with the observed efficacies. Colby's formula: E=x+y−x·y/100 • E expected efficacy, expressed in % of the untreated control, when using the mixture of the active compounds A and B at the concentrations a and b • x efficacy, expressed in % of the untreated control, when using active compound A at a concentration of a • y efficacy, expressed in % of the untreated control, when using active compound B at a concentration of b.
Protective Activity Against Mildew of Wheat Caused by Erysiphe [syn. Blumeria] graminis forma specialis tritici
Leaves of potted wheat seedlings of the cultivar “Kanzler” were sprayed to runoff point with an aqueous preparation of active compound which had been prepared from a stock solution made of 10% of active compound, 85% of cyclohexanone and 5% of emulsifier and, 24 hours after the spray coating had dried on, dusted with spores of mildew of wheat (Erysiphe [syn. Blumeria] graminis forma specialis. tritici). The test plants were then placed in a greenhouse at 20–24° C. and 60–90% relative atmospheric humidity. After 7 days, the extent of the mildew development was determined visually in % infection of the total leaf area.
The visually determined percentages of infected leaf area were converted into efficacies as % of the untreated control. An efficacy of 0 means that the infection level of the treated plants corresponds to that of the untreated control; an efficacy of 100 means 0% infection. The expected efficacies of the combinations of active compounds were determined using Colby's formula (Colby, S. R. (Calculating synergistic and antagonistic responses of herbicide Combinations”, Weeds, 15, pp. 20–22, 1967) and compared with the observed efficacies.

[1] = 0.6 ppm active compound in the spray liquor
[2] = 1.25 ppm active compound in the spray liquor

Fc1ccc([C@]2(Cn3cncn3)O[C@H]2c2ccccc2Cl)cc1 (racemic) [III.a, (2RS,3SR)-1-[3-(2-chlorophenyl)-2-(4-fluorophenyl)-oxiran-2-ylmethyl]-1H-1,2,4-triazole]
Efficacy in % of the untreated control (0.3 ppm active compound in the spray liquor): 4%
Efficacy in % of the untreated control [1]: 4%
Efficacy in % of the untreated control [2]: 4%

pyraclostrobin [II-6]
Efficacy in % of the untreated control [1]: 36%
Efficacy in % of the untreated control [2]: 47%
Efficacy in % of the untreated control (2.5 ppm active compound in the spray liquor): 57%

Source: patent US7186672B2, “Fungicidal mixtures” (BASF Aktiengesellschaft, priority 2001, dated 2007)
